Results taken from US20260285903A1, “SYNTHESIZED BIOLOGICALLY ACTIVE COMPOUNDS AND METHODS OF MAKING AND USING” (Georgia State University Research Foundation, Inc., priority 2023, published 2026).

Columns and labels:
[1] = Incubation with mouse intestinal microsomes (HPLC); format: in vitro ADME; settings: incubation for 30 minutes
Description: The biopharmaceutical properties of the synthesized M13 (5-glutathione-6-shogaol) were characterized.

[2] = tested on: NF-κB signaling pathway; assay: NF-κB-dependent luciferase activity in NF-κB/293/GFP-Luc cells treated with TNF-α; format: cell-based; settings: for RLU (% with TNFα): MLY compounds; for RLU (% with TNFα) / reduction of NF-κB activation: TNF-α 10 ng/ml, 18 hours; for Activity compared with M13: Table 2B; for reduction of NF-κB activation / RLU (% with TNF-α), range: 20 µM; for IC50: TNF-α stimulated, FIG. 9, read-out: dose to reduce the NF-κB activation by 50%; for RLU (% with TNF-α), range: Table 2B bins, 1080 min
Experimental: First, the anti-inflammatory activity of MLY compounds on the NF-κB signaling pathway was examined using the NF-xB/293/GFP-LucTnl cell line (System Biosciences). This cell line is specifically designed for use in quantitatively monitoring (by luciferase intensity) transcriptional activation related to the NF-κB signal transduction pathway in vitro. Treatment of NF-κB/293/GFP-Luc™ cells with 10 ng/ml TNF-α for 18 hours induced strong activation of the NF-κB signal transduction pathway (FIGS. 8A and 8B). […] MLY2 and MLY8 induced a strongest 90% reduction of NF-κB activation the anti-inflammatory effect of MLY 2 and 8 was dose-related (FIG. 9). The dose to reduce the NF-κB activation by 50% was […] for M13, 5 μM for MLY2 and 11 μM for MLY8 (FIG. 9).

Compound | relative content retained of the input [1] [%] | RLU (% with TNFα) [2] [%] | Activity compared with M13 [2] | reduction of NF-κB activation [2] [%] | IC50 [2] [µM] | RLU (% with TNF-α), range [2] [%]
CCCCC/C=C/C(=O)CCc1ccc(O)c(OC)c1 [6-shogaol, reference compound] | 61 |  |  |  |  | 
CCCCCC(CC(=O)CCc1ccc(O)c(OC)c1)SC[C@H](NC(=O)[C@@H](N)CCC(=O)O)C(=O)N[C@@H](C)C(=O)O (stereo partly drawn) [MLY-1, Glu(alpha)-Cys(6-shogaol)-Ala] |  | 30.3 ± 11.78 | >>M13 (15~35%) |  |  | 
CCCCCC(CC(=O)CCc1ccc(O)c(OC)c1)SC[C@H](NC(=O)[C@@H](N)CCC(=O)O)C(=O)N[C@@H](CC(C)C)C(=O)O (stereo partly drawn) [MLY-2, Glu(alpha)-Cys(6-shogaol)-Leu] |  | 0.78 ± 0.54 | >>>>M13 (0~5%) | 90 | 5 | 
CCCCCC(CC(=O)CCc1ccc(O)c(OC)c1)SC[C@H](NC(=O)[C@@H](N)CCC(=O)O)C(=O)N1CCC[C@H]1C(=O)O (stereo partly drawn) [MLY-3, Glu(alpha)-Cys(6-shogaol)-Pro] |  | 6.54 ± 8.56 | >M13 (35%~70%) |  |  | 
CCCCCC(CC(=O)CCc1ccc(O)c(OC)c1)SC[C@H](NC(=O)[C@@H](N)CCC(=O)O)C(=O)N[C@@H](Cc1c[nH]c2ccccc12)C(=O)O (stereo partly drawn) [MLY-4, Glu(alpha)-Cys(6-shogaol)-Trp] |  | 80.65 ± 2.22 | = M13 (70%~85%) |  |  | 
CCCCCC(CC(=O)CCc1ccc(O)c(OC)c1)SC[C@H](NC(=O)[C@@H](N)CCC(=O)O)C(=O)N[C@@H](Cc1ccc(O)cc1)C(=O)O (stereo partly drawn) [MLY-5, Glu(alpha)-Cys(6-shogaol)-Tyr] |  | 67.18 ± 3.27 | >M13 (35%~70%) |  |  | 
CCCCCC(CC(=O)CCc1ccc(O)c(OC)c1)SC[C@H](NC(=O)[C@@H](N)CC(=O)O)C(=O)N[C@@H](Cc1ccccc1)C(=O)O (stereo partly drawn) [MLY-6, Asp(alpha)-Cys(6-shogaol)-Phe] |  | 50.7 ± 1.38 | >M13 (35%~70%) |  |  | 
CCCCCC(CC(=O)CCc1ccc(O)c(OC)c1)SC[C@H](NC(=O)[C@@H](N)CC(=O)O)C(=O)N[C@@H](CC(C)C)C(=O)O (stereo partly drawn) [MLY-7, Asp(alpha)-Cys(6-shogaol)-Leu] |  | 38.6 ± 3.96 | >M13 (35%~70%) |  |  | 
CCCCCC(CC(=O)CCc1ccc(O)c(OC)c1)SC[C@H](NC(=O)[C@@H](N)CC(=O)O)C(=O)N[C@@H](CCSC)C(=O)O (stereo partly drawn) [MLY-8, Asp(alpha)-Cys(6-shogaol)-Met] |  | 8.04 ± 4.06 | >>>M13 (5%~15%) | 90 | 11 | 
CCCCCC(CC(=O)CCc1ccc(O)c(OC)c1)SC[C@H](NC(=O)[C@@H](N)CC(=O)O)C(=O)N1CCC[C@H]1C(=O)O (stereo partly drawn) [MLY-9, Asp(alpha)-Cys(6-shogaol)-Pro] |  | 92.85 ± 2.15 | <M13 (>90%) |  |  | >90
CCCCCC(CC(=O)CCc1ccc(O)c(OC)c1)SC[C@H](NC(=O)[C@@H](N)CC(=O)O)C(=O)N[C@H](C(=O)O)C(C)C (stereo partly drawn) [MLY-10, Asp(alpha)-Cys(6-shogaol)-Val] |  | 66.68 ± 11.06 | >M13 (35%~70%) |  |  | 
CCCCCC(CC(=O)CCc1ccc(O)c(OC)c1)SC[C@H](NC(=O)[C@@H](N)CC(=O)O)C(=O)N[C@@H](Cc1c[nH]c2ccccc12)C(=O)O (stereo partly drawn) [MLY-11, Asp(alpha)-Cys(6-shogaol)-Trp] |  | 24.75 ± 0.79 | >>M13 (15~35%) |  |  | 
CCCCCC(CC(=O)CCc1ccc(O)c(OC)c1)SC[C@H](NC(=O)[C@@H](N)CC(=O)O)C(=O)N[C@@H](Cc1ccc(O)cc1)C(=O)O (stereo partly drawn) [MLY-12, Asp(alpha)-Cys(6-shogaol)-Tyr] |  | 47.43 ± 5.5 | >M13 (35%~70%) |  |  | 
CCCCCC(CC(=O)CCc1ccc(O)c(OC)c1)SC[C@H](NC(=O)[C@@H](N)CCC(=O)O)C(=O)N[C@@H](CCSC)C(=O)O (stereo partly drawn) [MLY-13, Glu(alpha)-Cys(6-shogaol)-Met] |  | 60.22 ± 13.55 | >M13 (35%~70%) |  |  | 
CCCCCC(CC(=O)CCc1ccc(O)c(OC)c1)SC[C@H](NC(=O)[C@@H](N)CC(=O)O)C(=O)N[C@H](C(=O)O)[C@@H](C)CC (stereo partly drawn) [MLY-14, Asp(alpha)-Cys(6-shogaol)-Ile] |  | 80.67 ± 11.28 | = M13 (70%~85%) |  |  | 
CCCCCC(CC(=O)CCc1ccc(O)c(OC)c1)SC[C@H](NC(=O)[C@@H](N)CCC(=O)O)C(=O)N[C@@H](Cc1ccccc1)C(=O)O (stereo partly drawn) [MLY-15, Glu(alpha)-Cys(6-shogaol)-Phe] |  | 47.98 ± 9.35 | >M13 (35%~70%) |  |  | 
CCCCCC(CC(=O)CCc1ccc(O)c(OC)c1)SC[C@H](NC(=O)[C@@H](N)CCC(=O)O)C(=O)N[C@H](C(=O)O)[C@@H](C)CC (stereo partly drawn) [MLY-16, Glu(alpha)-Cys(6-shogaol)-Ile] |  | 68.19 ± 4.46 | >M13 (35%~70%) |  |  | 
CCCCCC(CC(=O)CCc1ccc(O)c(OC)c1)SC[C@H](NC(=O)[C@@H](N)CCC(=O)O)C(=O)N[C@H](C(=O)O)C(C)C (stereo partly drawn) [MLY-17, Glu(alpha)-Cys(6-shogaol)-Val] |  | 45.13 ±1.96 | >M13 (35%~70%) |  |  | 
CCCCCC(CC(=O)CCc1ccc(O)c(OC)c1)SC[C@H](NC(=O)[C@@H](N)CC(=O)O)C(=O)NCC(=O)O (stereo partly drawn) [MLY-18, Asp(alpha)-Cys(6-shogaol)-Gly] |  | 112.31 ± 7.28 | <M13 (>90%) |  |  | >90
CCCCCC(CC(=O)CCc1ccc(O)c(OC)c1)SC[C@H](NC(=O)[C@@H](N)CC(=O)O)C(=O)N[C@@H](C)C(=O)O (stereo partly drawn) [MLY-19, Asp(alpha)-Cys(6-shogaol)-Ala] |  | 67.04 ± 11.04 | >M13 (35%~70%) |  |  | 
